These results are taken from PubChem BioAssay (NCI).

Values joined by “and” are separate entries in the source; they are usually repeats but may differ in a detail not shown here. Equal entries are not always repeated.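 Test compounds were applied to cells in 96-well plates for 48 hours at 5 doses. GI50 is the concentration that inhibits growth by half. The concentration for full growth arrest is given as TGI.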

Assay in all cases: growth of human tumour cells (NCI), 48 h
Experiment [1] has as its system 786-0 renal.
Experiment [2] concerns MDA-MB-231 breast.
For experiment [3], the system named is KM12 colon.
Experiment [4] deals with SF-539 CNS.
Experiment [5] relates to MOLT-4 leukemia.
Experiment [6] concerns PC-3 prostate.
Experiment [7] concerns SK-MEL-2 melanoma.
Experiment [8] relates to SR leukemia.
The subject of experiment [9] is OVCAR-3 ovarian.
Experiment [10] has as its system CCRF-CEM leukemia.

`O1[As]2O[As]3O[As]1O[As](O2)O3`: the GI50 in experiment [1] is 0.528 µM; in experiment [2], 0.648 µM; in experiment [3], 3.31 µM; in experiment [4], 0.347 µM; in [5], 1.28 µM; in [6], 0.781 µM. The GI50 is 1.84 µM in experiment [7], 0.295 µM in experiment [8], 0.283 µM in experiment [9] and 0.161 µM in [10]. The TGI in experiment [1] came out at 1.82 µM; in experiment [2], 2.96 µM; in [3] it was 13.9 µM; in [4], 1.71 µM; in experiment [5], 4.58 µM; in [6], 5.9 µM. For the same compound, the TGI worked out at 16.7 µM in experiment [7], 3.7 µM in experiment [8], 0.72 µM in experiment [9] and 1.11 µM in [10].
For `NCCN.O=C([O-])CN1CCOCC1.[OH-].[Pt+4]`, the GI50 in [1], in experiment [2], in [3], in [4], in experiment [5] and in experiment [6] was over 100 µM in each case. The GI50 in experiment [7], in experiment [8], in experiment [9] and in experiment [10] was over 100 µM throughout. For the same compound, the TGI in experiment [1], in experiment [2], in experiment [3], in [4], in experiment [5] and in experiment [6] was over 100 µM each time. The TGI in [7], in experiment [8], in experiment [9] and in experiment [10] was over 100 µM throughout.
For `NC(=O)c1ccc(-c2nc(-c3ccc4c(c3)OCO4)c(-c3ccccn3)[nH]2)cc1`, the GI50 in experiment [1] was > 25 µM and 36.4 µM; in experiment [2], 21.3 µM and 14.8 µM; in experiment [3], > 25 µM and 35.7 µM; in experiment [4], > 25 µM and 49 µM; in [5] it was > 25 µM and 38.8 µM; in experiment [6] it was > 25 µM and 43.2 µM. The GI50 in [7] is > 25 µM and 35.8 µM; in [8], > 25 µM and 20.4 µM; in [9], > 25 µM and 35.3 µM; in experiment [10] it was > 25 µM and 38.4 µM. In addition, the TGI is over 100 µM in experiment [1]; > 25 µM and 59.1 µM in [2]; over 100 µM in experiment [3]; over 100 µM in experiment [4]; over 100 µM in [5]; over 100 µM in [6]. Moreover, the TGI in experiment [7], in experiment [8], in experiment [9] and in experiment [10] was over 100 µM in each case.
`Nc1c(C(=O)c2cccc(-c3cccnc3)c2)cnn1-c1ccc(F)cc1F`: the GI50 is 18.1 µM in experiment [1]; 3.8 µM in [2]; 1.21 µM in experiment [3]; 8.32 µM in [4]; 7.85 µM in [5]; 5.12 µM in [6]. For the same compound, the GI50 in experiment [7] is 3.87 µM; in experiment [8], 0.823 µM; in [9], 3.93 µM; in [10], 10.2 µM. The TGI in [1], in experiment [2], in experiment [3], in experiment [4], in experiment [5] and in experiment [6] was over 25 µM throughout. The TGI in experiment [7] is over 18.4 µM; in experiment [8], over 6.83 µM; in experiment [9] it was over 25 µM; in experiment [10], over 25 µM.
As for `NC(=O)Nc1cc(-c2cccc(F)c2)sc1C(=O)N[C@H]1CCCNC1`, the GI50 is 0.0717 µM and 0.166 µM in experiment [1]; 0.305 µM and 0.424 µM in experiment [2]; 0.00626 µM and 0.0351 µM in experiment [3]; 0.0192 µM and 0.0616 µM in experiment [4]; 0.0606 µM and 0.26 µM in [5]; 0.502 µM and 0.521 µM in experiment [6]. Also, the GI50 is 0.151 µM and 0.244 µM in experiment [7]; 0.0312 µM and 0.14 µM in experiment [8]; 0.168 µM and 0.55 µM in [9]; 0.0414 µM and 0.124 µM in experiment [10]. For the same compound, the TGI is 1.35 µM and 0.634 µM in experiment [1]; 2.82 µM and 2.33 µM in [2]; 6.38 µM and 3.3 µM in experiment [3]; 0.17 µM and 0.331 µM in experiment [4]; > 10 µM and 1.8 µM in experiment [5]; > 10 µM and 17.5 µM in experiment [6]. Further, the TGI in experiment [7] was > 3.75 µM and 3.15 µM; in experiment [9], 4.56 µM and 5.17 µM; in [10], > 2.96 µM and 3 µM.
With `C[C@]12CC[C@@H]3c4ccc(O)cc4CC[C@H]3[C@@H]1Cc1cnc(N)nc12`, the GI50 in [1] is 23.3 µM; in experiment [2], 13.7 µM; in experiment [3] it was 11.8 µM; in experiment [4], 14.8 µM; in experiment [5], 13 µM; in experiment [6] it was 15.7 µM. Moreover, the GI50 was 26.9 µM in [7], 7.06 µM in experiment [8], 23 µM in [9] and 15.3 µM in [10]. Besides, the TGI in experiment [1] amounted to 59.3 µM; in experiment [2], 32.8 µM; in [3] it was 26.8 µM; in [4], 30.5 µM; in [5], 41.1 µM; in experiment [6], 35.9 µM. In addition, the TGI is over 100 µM in [7], 39.2 µM in experiment [8], 58.7 µM in experiment [9] and 40 µM in [10].
On to `CN(C)CC1CCC2=C(C1=O)C(c1ccc(Cl)c(Cl)c1)C1=C(CCC(CN(C)C)C1=O)O2` (stereo not drawn), for which the GI50 was 1.58 µM in experiment [1]; 15.4 µM in experiment [2]; 2.58 µM in experiment [3]; 6.01 µM in experiment [4]; 5.18 µM in experiment [5]; 16.6 µM in [7]. Besides, the GI50 in experiment [8] was 1.44 µM; in experiment [9] it was 1.6 µM; in experiment [10], 3.33 µM. Moreover, the TGI in experiment [1] was 2.98 µM; in experiment [2], 28.7 µM; in experiment [3], 8.85 µM; in experiment [4], 18.2 µM; in [5] it was 22.1 µM; in [6] it was 19.9 µM. Also, the TGI in [7] was found to be 30.7 µM; in experiment [8], 5.37 µM; in [9] it was 5.89 µM; in [10], 26.3 µM.
